{
  "source": "patent US7273888B2",
  "about": "“Use of difluoromethylornithine (DFMO) for the treatment of amyotrophic lateral sclerosis” (ALS Therapy Development Foundation, Inc., priority 2001, dated 2007)",
  "key": {"SOD1 G93A mice [1]": {"system": "SOD1 G93A mice", "test": "Neurological score analysis in SOD1 G93A (high copy) mouse model of ALS", "assay_type": "in vivo", "description": "Survival in the mouse is copy dependent.\nControls animals were given water as vehicle."}, "SOD1 G93A mice [2]": {"system": "SOD1 G93A mice", "test": "Survival analysis (Kaplan-Meier) in SOD1 G93A (high copy) mouse model of ALS", "from_the_text": "(i) Model Description: The SOD1 G93A (high copy) mouse model was used as the model for ALS. This mouse model carries 25 copies of the human G93A SOD mutation and is driven by the endogenous promoter.\n(ii) Murine FALS model: Heterozygous transgenic mice carrying the human SOD-1 (G93A) gene were obtained from Jackson Laboratory (Bar Harbor, Me., USA).\n(iv) Methods: Forty (n=40) SOD1 G93A high copy mice obtained from Jackson Laboratory (Bar Harbor, Me.) were separated into two groups of twenty (n=20) with an equal number of males (n=10) and females (n=10) in each group. The groups were also litter matched to reduce group variation. Male animals were singly housed and females were group housed to conserve space. […] When animals had difficulty in moving and taking care of themselves chow and water were replaced with food pellets in bedding and Jell-O for water. (v) Pharmacological Agent Delivery: All pharmacological agents were administered to SOD1 G93A mice.\nControls animals were given water as vehicle. All treatments are performed 7 days per week and treatment was initiated at day 60 of life. […] When a neurological score of 2 is attained, the animals are no longer capable of drinking themselves due to paralysis. […] Controls were given water as vehicle until a neurological score of 2 at which point they were injected with saline as vehicle.\n• 0=Normal reflex on the hind limbs (animal will splay its hind limbs when lifted by its tail). • 1=Abnormal reflex of hind limbs (lack of splaying of hind limbs when animal is lifted by the tail). • 2=Abnormal reflex of limbs and evidence of paralysis. • 3=Lack of reflex and complete paralysis. • 4=Inability to right themselves when placed on the sides in 30 seconds or found dead. The animals are sacrificed at this stage if alive."}, "SOD1 G93A mice [3]": {"system": "SOD1 G93A mice", "conditions": "mouse, in vivo, ip, 250 mg/kg/day"}, "[4]": {"system": "patients with advanced non-small cell lung cancer", "conditions": "Phase I, advanced non-small cell lung cancer (Hahm et al. 2002); cited from earlier work"}, "[5]": {"conditions": "female mice, IP 24 mg/kg/day twice daily till death, FIG. 12"}, "[6]": {"conditions": "discontinuous dosing 3200 mg/Kg/day in drinking water, 21 days on / 7 days off"}},
  "data": [
    {"compound": "NC(=O)NO", "note": "[hydroxyurea]", "values": [
      {"measurement": "effect on neurological score", "setting": "SOD1 G93A mice [1]; female mice, IP 250 mg/Kg/day once daily, day 50 until day 110, FIG. 11", "result": "protective"},
      {"measurement": "onset of ALS disease", "setting": "SOD1 G93A mice [2]; IP 250 mg/Kg/day once daily, day 50 until day 110", "result": "delays the onset of ALS disease"},
      {"measurement": "life span", "setting": "SOD1 G93A mice [2]; female mice, IP 250 mg/Kg/day once daily, day 50 until day 110, FIG. 10", "result": "extended the life span"},
      {"measurement": "toxicity leading to stop of treatment", "setting": "SOD1 G93A mice [3]", "result": "discontinued after day 110 due to toxicity"}
    ]},
    {"compound": "CCNCCCNCCCNCCCNCC", "note": "[DENSPM, N(1),N(11)-diethylnorspermine]", "values": [
      {"measurement": "effect on neurological score", "setting": "SOD1 G93A mice [1]; female mice, IP 24 mg/kg/day twice daily till death, FIG. 13", "result": "protective"},
      {"measurement": "toxicity in patients", "setting": "[4]", "result": "minimal toxicity"},
      {"measurement": "onset of disease", "setting": "SOD1 G93A mice [2]; [5]", "result": "delays the onset of disease"},
      {"measurement": "survival", "setting": "SOD1 G93A mice [2]; [5]", "result": "extends the survival"}
    ]},
    {"compound": "NCCCC(N)(C(=O)O)C(F)F", "note": "(racemic) [DFMO, 2-(Difuoromethyl)-DL-ornithine]", "values": [
      {"measurement": "effect on neurological score", "setting": "SOD1 G93A mice [1]; combined male and female, continuous dosing 3200 mg/Kg/day, FIGS. 5", "result": "protective"},
      {"measurement": "effect on neurological score", "setting": "SOD1 G93A mice [1]; female mice, discontinuous dosing 3200 mg/Kg/day, during the drug delivery period", "result": "protective"},
      {"measurement": "effect on neurological score", "setting": "SOD1 G93A mice [1]; female, continuous dosing 3200 mg/Kg/day, FIG. 9", "result": "protective"},
      {"measurement": "effect on neurological score", "setting": "SOD1 G93A mice [1]; male, continuous dosing 3200 mg/Kg/day, FIG. 7", "result": "protective"},
      {"measurement": "onset of disease", "setting": "SOD1 G93A mice [2]; continuous dosing 3200 mg/Kg/day in drinking water, no drug holiday", "result": "delays the onset of disease"},
      {"measurement": "life span", "setting": "SOD1 G93A mice [2]; continuous dosing 3200 mg/Kg/day in drinking water, no drug holiday, combined, male and female, FIGS. 4, 6 and 8", "result": "extended the life span"},
      {"measurement": "onset of disease", "setting": "SOD1 G93A mice [2]; [6]", "result": "delays the onset of disease"},
      {"measurement": "survival", "setting": "SOD1 G93A mice [2]; [6]", "result": "extends the survival"},
      {"measurement": "deaths of animals in the treatment group during the drug holiday or a few days immediately succeeding it", "setting": "SOD1 G93A mice [2]; females, discontinuous dosing 3200 mg/Kg/day in drinking water, 21 days then 7 day drug holiday, FIG. 2", "result": 70, "unit": "%"},
      {"measurement": "trend in male mice", "setting": "SOD1 G93A mice [2]; ongoing IP injection study, 3200 mg/kg, male mice", "result": "positive male trend"}
    ]}
  ]
}
